In one test the target is T1, AKAP1 (Mus musculus, UniProt O08715).
T1 construct: from tissue; host or cells: mouse brown adipose tissue (BAT) lysate; also mouse brown adipocyte extracts
T1 sequence (O08715 30-857): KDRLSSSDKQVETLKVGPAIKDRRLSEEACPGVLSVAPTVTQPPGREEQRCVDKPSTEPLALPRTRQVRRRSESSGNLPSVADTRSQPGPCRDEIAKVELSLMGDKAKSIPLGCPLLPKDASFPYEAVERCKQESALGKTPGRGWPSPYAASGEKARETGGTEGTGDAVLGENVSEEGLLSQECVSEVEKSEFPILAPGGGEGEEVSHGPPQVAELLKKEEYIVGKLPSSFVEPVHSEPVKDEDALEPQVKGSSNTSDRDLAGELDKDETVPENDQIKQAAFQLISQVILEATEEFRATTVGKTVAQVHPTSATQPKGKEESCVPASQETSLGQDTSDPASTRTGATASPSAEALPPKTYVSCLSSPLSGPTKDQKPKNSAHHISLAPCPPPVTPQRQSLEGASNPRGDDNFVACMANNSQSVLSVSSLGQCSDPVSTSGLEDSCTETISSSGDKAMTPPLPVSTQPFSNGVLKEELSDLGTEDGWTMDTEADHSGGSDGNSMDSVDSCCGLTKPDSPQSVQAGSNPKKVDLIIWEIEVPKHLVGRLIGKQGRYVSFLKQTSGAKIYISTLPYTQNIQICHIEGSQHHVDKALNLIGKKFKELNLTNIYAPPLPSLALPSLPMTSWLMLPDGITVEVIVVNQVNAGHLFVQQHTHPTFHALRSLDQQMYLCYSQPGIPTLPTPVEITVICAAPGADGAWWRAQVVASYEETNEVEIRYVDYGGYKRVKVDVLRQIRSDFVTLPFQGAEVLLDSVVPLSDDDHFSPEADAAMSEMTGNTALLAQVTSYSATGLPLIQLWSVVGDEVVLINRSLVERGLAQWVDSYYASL
Nature of the test: Drug Affinity Responsive Target Stability (DARTS) in BAT or brown adipocyte extracts, AKAP1. It counts as binding. The conditions noted are these: mouse brown adipocyte extracts, 1 h, 20 μM (CL316,243 20 nM). How it is done: […] assays were performed according to known methods. Briefly, BAT or cells within a 10 cm dish were lysed with 600 μl M-PER buffer containing protease and phosphatase inhibitors. Debris was pelleted by centrifugation at 18,000 g for 10 min at 4° C., and the lysates were harvested and supplemented with TNC buffer (50 mM Tris-HCl, 50 mM NaCl, 10 mM CaCl2). The lysates were split into two tubes and treated with either vehicle or 20 μM Z160 for 1 h at room temperature. For experiment with BAT, 100 μg of lysate was incubated with different Z160 concentrations. Different concentrations of pronase (from 1:100 to 1:10,000 dilution from a 1.25 mg/ml pronase stock) were incubated with the samples for 30 min at room temperature and the reaction was stopped with SDS loading buffer followed immediately by heating at 70° C. for 10 min. Protein lysates were separated by SDS-PAGE and transferred to a nitrocellulose membrane. After blocking in 5% milk, 0.1% Tween-20 in Tris-buffered saline (TBS), primary antibody was incubated overnight at 4° C. in 5% bovine serum albumin and 0.1% Tween-20 in TBS. Primary antibodies against AKAP1 (5203, Cell Signaling), AKAP13 (39715, One World Lab), GAPDH (GTX100118, Genetex), OPA1 (39557, One World Lab), PKA C-α (4782, Cell Signaling), PKA RII-β (ab75993, Abcam), were used at 1:2000. A goat anti-rabbit secondary antibody (sc-2030, Santa Cruz Biotechnology, Inc) was used at a 1:10,000 dilution for 1 h at room temperature in 5% milk and 0.1% Tween-20 in TBS.
The PKA tetramer consists of two catalytic and two regulatory subunits. In the mouse, these are catalytic subunits C-α and C-β, and regulatory subunits RI and RII, each with α and β isoforms (RI-α, RI-β, RII-α, RII-β). PKA is also bound to a family of anchoring proteins, A-kinase anchoring proteins (AKAPs), which allow the compartmentalization of cAMP signaling. To investigate whether Z160 binds PKA complex proteins, two techniques were applied both of which rely on ligand-induced alterations in protein stability: Cellular Thermal Shift Assay (CETSA) and Drug Affinity Responsive Target Stability (DARTS). CETSA is based on the principle that ligand binding will change the temperature at which a protein starts to unfold and aggregate, while DARTS relies on the protection of a protein from proteolysis upon specific binding to a small molecule.
To provide further evidence for an interaction between Z160 and AKAP1, DARTS assays were employed. Lysates from brown fat were treated with different Z160 concentrations for 1 h followed by pronase digestion and immunoblotting. […] The effect of Z160 on AKAP1 was confirmed using mouse brown adipocyte extracts (FIG. 15A).

In the next test the test system is Ucp1. Nature of the test: Gene expression by qPCR in immortalized brown adipocytes. It counts as cell-based, mouse. The conditions noted are these: for effect of antagonist on induction of Ucp1 mRNA by Z160: 20 μM antagonist 1 h prior to and during overnight 10 μM Z160. How it is done:
Primary brown adipocytes were isolated according to known methods. An established mouse brown adipocyte cell line was obtained from Dr. Bruce Spiegelman (Dana-Farber Cancer Institute, Boston, USA). To differentiate primary and immortalized brown adipocytes, cells were grown until confluency in DMEM containing 10% FBS, 25 mM glucose 1 mM pyruvate, 2 mM glutamine, 20 nM insulin, 1 nM T3, and antibiotics. Once confluent (day 0), differentiation was induced by supplementing the medium with 0.5 mM IBMX, 0.5 μM dexamethasone, and 0.125 mM indomethacin, for 2 days. Differentiation was continued in the original medium (without IBMX, dexamethasone and indomethacin) for 7-10 days.
TScreening was conducted at the UCLA Molecular Screening Shared Resource using automated instruments Immortalized brown adipocytes were differentiated in T225 flasks and plated in Matrix 384-well plates (26,000 cells per well) with white flat bottom (ThermoScientific) using trypsin and collagenase type II (Sigma C6885). The small molecule libraries screened were a BioMol library (204 compounds), an FDA-approved drug library (1120 compounds), a Microsource spectrum collection (2000 compounds), and a druggable compound set (8000 compounds). Molecules were delivered at 10 μM final concentration in DMSO. The screen was performed in duplicate on different days. After 18 h, luciferase activity was measured with Bright-Glo luciferase assay system and an LJL instrument. Data were normalized to the basal response (100% activity) in the presence of DMSO. Following the primary screen, 92 molecules were selected for validation and used to treat brown adipocyte cells plated in a 96-well plate overnight. RNA was extracted with an SV 96 Total RNA Isolation System (Promega). Compounds used for follow-up studies were identified using search tools available from Molport (molport.com), and ordered from the same company.
(§1) RNA levels were measured by qPCR according to known methods. Briefly, RNA was extracted with TRIzol (Invitrogen) and reverse transcribed with iScript (Bio-Rad). Real-time PCR analysis was performed with a CFX Connect (Bio-Rad).
Mouse RNA levels were measured by qPCR according to known methods. Data were normalized to B2m and Tbp reference genes. Human RNA was extracted using an RNA Mini Plus kit (Zymo) and gene expression determined by Taqman assay. The 1-step qPCR was run on a QuantStudio 12K Flex Real Time PCR System (ThermoFisher) using the following protocol: 50° C. for 5 minutes, 95° C. for 20 seconds, 40 cycles of 95° C. for 15 seconds and 60° C. for 60 seconds. Data were normalized to PPIA and PSMB2 reference genes. For global gene expression analysis, RNA isolated from brown adipocytes treated with compounds as indicated (four biological replicates) was hybridized to Illumina mouse Ref 8 V2.0 bead chips at the University of California, Los Angeles Neuroscience Genomics Core as previously described. Data were processed with GenomeStudio V2011.1 using the quantile normalization, background subtraction, and a present call of P<0.05.

The test system of a further test is PKA. Kind of test: PKA activity ELISA, cell or tissue lysates treated 30 min. In kind it is biochemical, mouse. Particulars: cell lysates, 500 μM H-89 10 min, then 50 μM Z160 30 min. As to the method:
PKA kinase activity was measured with an ELISA that utilized a synthetic peptide as substrate for PKA and a polyclonal antibody that recognizes the phosphorylated form of the substrate (ab139435, Abcam). PKA activity was measured in lysates from cultured brown adipocytes, mouse BAT, or liver. Cells and tissues were lysed in 20 mM MOPS, 5 mM EGTA, 2 mM EDTA, and 0.1% Triton X-100 supplemented with protease and phosphatase inhibitor as described above. Protein concentration was determined by Bradford assay and 10 μg of cells, 0.25 μg of BAT extract, or 0.5 μg of liver extract were assessed for PKA activation according to the manufacturer's instruction, with minor changes. Briefly, vehicle or Z160 was incubated with brown adipocyte cells overnight or with protein lysates for 30 min, followed by one wash before the primary antibody, 60 min incubation with the primary antibody, 30 min incubation with the secondary antibody, and by 10 min washing. Absorbance was measured after the substrate was added for 20-60 min, depending the intensity of the signal.

The subject of test [1] is NRVM. Kind of test: Respirometry (reserve capacity) in neonatal rat ventricular myocytes. It counts as cell-based. Particulars: 48 h 100 μM isoproterenol followed by 24 h rest. As to the method: (§2) Rat H9c2 cells were grown in DMEM supplemented with 10% FBS, 25 mM glucose, 1 mM pyruvate, and 2 mM glutamine Neonatal rat ventricular myocytes (NRVM) were isolated and cultured as previously described. Briefly, 2-4 day old rats were sacrificed and myocytes and fibroblasts were isolated and separated using a Percoll density gradient. Following isolation, NRVMs were plated on gelatin-coated plates in DMEM containing 10% FBS, 25 mM glucose, 1 mM pyruvate, and 2 mM glutamine The next day, FBS was replaced by 1× insulin-transferrin-selenium supplement and the cells were treated with vehicle or 10 μM Z160 for 2 days, with or without 60 μM isoproterenol or 50 μM phenylephrine.
NRVM were seeded in a Seahorse Bioscience XF96 plate and cultured for 48 h in 10% FBS. Next, cells were treated with 100 μM ISO for 48 h, followed by 24 h of 10 μM Z160. Oxygen consumption rate (OCR) was recorded in a Seahorse Bioscience XF96 analyzer before and after the sequential injection of 0.75 μM oligomycin, 0.75 μm FCCP and 0.75 μM rotenone/myxothiazol. Reserve capacity was calculated as the difference between basal respiration and FCCP response.

For test [2], the system named is NRVM. Kind of test: Hypertrophic gene expression in neonatal rat ventricular myocytes. It counts as cell-based. Particulars: agonist alone, 48 h. How it is done: as §2, §1

SMILES strings stand for the structures.

Regarding `C[C@H](Cc1ccc2c(c1)OC(C(=O)[O-])(C(=O)[O-])O2)NC[C@H](O)c1cccc(Cl)c1.[Na+].[Na+]` [CL316,243, reference compound], the “effect on AKAP1 (pronase susceptibility)” value at AKAP1 is listed as “not observed”.
As for `O=S(=O)(NCCNC/C=C/c1ccc(Br)cc1)c1cccc2cnccc12` [H-89, reference compound], the “effect of antagonist on Z160 enhancement of Cidea and Elovl3 expression” value in the test on Ucp1 (20 μM H-89 1 h prior to and during overnight 10 μM Z160) is “blunted”. Further, the “effect of antagonist on induction of Ucp1 mRNA by Z160” value (from here on “effect of antagonist … by Z160”) in the test on Ucp1 is given as “blocked the effect of Z160”. The “PKA activity and Z160 response after pre-incubation with PKA antagonist” value in the test on PKA is “reduced the PKA activity and negated the Z160 response”.
As for `Oc1ccc(-c2nc(-c3ccncc3)c(-c3ccc(F)cc3)[nH]2)cc1` [SB202190, reference compound], the “effect of antagonist … by Z160” value in the test with Ucp1 is “blocked the effect of Z160”.
In the case of `CC(C)NCC(O)c1ccc(O)c(O)c1` (stereo not drawn) [isoproterenol], in the test with NRVM [1], the “reserve capacity of mitochondrial respiration” value is “decreased the reserve capacity”. Besides, in the test on NRVM [2], the “expression of Nppa and Nppb” value is given as “induced the expression”; the “expression of Pln” value was “reduced expression”. Further, in the test with NRVM [2] (listed as ISO), the “expression of Nppa and Nppb” value is “increase”; the “expression of Pln” value is recorded as “decreasing”.
As to `CNC[C@H](O)c1cccc(O)c1` [phenylephrine], in the test on NRVM [2], the “expression of Nppa and Nppb” value is “induced the expression”; the “expression of Pln” value is “reduced expression”. Besides, in the test on NRVM [2] (listed as PE), the “expression of Nppa and Nppb” value is “increase”; the “expression of Pln” value was “decreasing”.
With `c1ccc(CC2=NCCN2)cc1` [tolazoline, reference compound], the “effect of antagonist … by Z160” value in the test with Ucp1 is recorded as “did not prevent”.

The values are drawn from patent US12661355B2, “Compounds and methods for inducing UCP1 expression” (The Regents of the University of California, priority 2020, dated 2026).
